According to patent US12343319B2, “Compositions and methods for treatment of diseases and disorders” (Atai Therapeutics Inc., priority 2023, dated 2025):

Key:
[1] = target: T1, 5-HT1B (Homo sapiens, UniProt P28222); assay: cAMP, 5-HT1B; assay type: cell-based
T1 construct: expressed in transfected cells
Description: (§1) In vitro pharmacology studies were performed to evaluate the effects of compound 2-1 on functional activity of several 5-HT receptors using recombinant target overexpression cell culture systems. The effect of compound 2-1 on G protein-dependent signaling was investigated at 5-HT2A, 5-HT2B, and 5-HT2C receptors with calcium mobilization and IPOne assays; and at 5-HT1A, 5-HT1B, 5-HT1F, 5-HT5A, and 5-HT7D receptors with a cAMP assay. G protein-independent signaling was investigated at the 5-HT2A receptor with a β-Arrestin assay.
(§2) In vitro pharmacology studies were performed to evaluate the effects of compound 2-2 on functional activity at several 5-HT receptors using recombinant target overexpression cell culture systems. The effect of compound 2-2 on G protein-dependent signaling was investigated at 5-HT2A, 5-HT2B, and 5-HT2C receptors with calcium mobilization and IPOne assays; and at 5-HT1A, 5-HT1B, 5-HT1F, 5-HT5A, and 5-HT7D receptors with a cAMP assay. G protein-independent signaling was investigated at the 5-HT2A receptor with a β-arrestin assay. […] In Table 4, 5-HT receptor selectivity was calculated using ΔΔlog(Emax/EC50). Assay reference α-Me-5-HT or 5-HT was used for normalization at each receptor (5-HT2A/5-HT2B selectivity=1; 5-HT2A/5-HT2C selectivity=1). ND in Table 4 indicates, not determined, plateau was not reached within the concentration range tested to determine Emax.

[2] = target: T2, 5-HT1A (Homo sapiens, UniProt P08908); assay: cAMP, 5-HT1A; assay type: cell-based
T2 construct: expressed in transfected cells
T2 sequence (P08908 1-422): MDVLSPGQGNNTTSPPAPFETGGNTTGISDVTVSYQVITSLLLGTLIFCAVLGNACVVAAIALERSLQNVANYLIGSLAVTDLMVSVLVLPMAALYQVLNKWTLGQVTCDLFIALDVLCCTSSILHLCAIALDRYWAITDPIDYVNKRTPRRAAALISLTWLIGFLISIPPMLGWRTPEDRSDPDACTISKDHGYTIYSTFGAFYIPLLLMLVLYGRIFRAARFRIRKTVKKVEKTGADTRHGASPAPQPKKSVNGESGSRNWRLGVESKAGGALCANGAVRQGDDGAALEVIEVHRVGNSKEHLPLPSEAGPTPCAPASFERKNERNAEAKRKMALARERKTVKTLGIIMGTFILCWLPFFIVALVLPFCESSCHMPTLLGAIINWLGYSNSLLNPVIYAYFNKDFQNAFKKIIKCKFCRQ
Description: as §1, §2

[3] = target: 5-HT2A (rat) (Rattus norvegicus, UniProt P14842); assay: IPOne, rat 5-HT2A; assay type: cell-based; settings: for Emax / 5-HT2A/5-HT2B Selectivity (rat): IPOne; for Emax: rat 5-HT2A, read-out: Emax (% α-Me-5-HT); for 5-HT2A/5-HT2B Selectivity (rat): rat receptors
Text: (§3) Overall, in vitro activity at rodent 5-HT2A and 5-HT2B receptors is consistent with the human receptor results, with compound 2-1 acting as a potent and selective 5-HT2A agonist.
(§4) Overall, in vitro activity at rodent 5-HT2A and […] receptors is consistent with the human receptor results, with compound 2-2 acting as a potent and selective 5-HT2A agonist. In Table 5, ND indicates not determined.

[4] = target: T3, 5-HT1F (Homo sapiens, UniProt P30939); assay: cAMP, 5-HT1F; assay type: cell-based
T3 construct: expressed in transfected cells
T3 sequence (P30939 1-366): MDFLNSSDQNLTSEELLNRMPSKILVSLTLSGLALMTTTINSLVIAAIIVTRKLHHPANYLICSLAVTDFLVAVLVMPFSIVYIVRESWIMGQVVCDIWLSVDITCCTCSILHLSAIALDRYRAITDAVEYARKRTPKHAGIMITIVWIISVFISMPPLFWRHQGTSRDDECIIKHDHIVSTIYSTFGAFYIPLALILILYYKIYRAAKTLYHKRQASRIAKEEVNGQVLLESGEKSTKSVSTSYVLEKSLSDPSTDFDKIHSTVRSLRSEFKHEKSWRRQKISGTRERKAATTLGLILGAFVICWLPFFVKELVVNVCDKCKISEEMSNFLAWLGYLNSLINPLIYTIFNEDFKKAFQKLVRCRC
Description: as §1, §2

[5] = target: 5-HT2B (rat) (Rattus norvegicus, UniProt P30994); assay: IPOne, rat 5-HT2B; assay type: cell-based
Text: as §3, §4

[6] = tested on: 5-HT2A; assay: IPOne, 5-HT2A; assay type: cell-based, human; settings: IPOne, human; calculated using ΔΔlog(Emax/EC50), reference = 1
Description: as §1, §2

[7] = target: 5-HT2A (Homo sapiens, UniProt P28223); assay: β-Arrestin, 5-HT2A; assay type: cell-based; parameters: expressed in transfected cells; settings: for Emax: read-out: Emax (%5-HT)
Description: as §1, §2

[8] = target: T4, 5-HT7D (Homo sapiens, UniProt P34969); assay: cAMP, 5-HT7D; assay type: cell-based
T4 construct: expressed in transfected cells
Description: as §1, §2

[9] = target: T5, 5-HT2B (Homo sapiens, UniProt P41595); assay: IPOne, 5-HT2B; assay type: cell-based; settings: for Emax: IPOne, human 5-HT2B, read-out: Emax (% α-Me-5-HT)
T5 construct: expressed in transfected cells
Description: as §1, §2

Sequence of 5-HT2A (Homo sapiens, UniProt P28223) (P28223 whole entry): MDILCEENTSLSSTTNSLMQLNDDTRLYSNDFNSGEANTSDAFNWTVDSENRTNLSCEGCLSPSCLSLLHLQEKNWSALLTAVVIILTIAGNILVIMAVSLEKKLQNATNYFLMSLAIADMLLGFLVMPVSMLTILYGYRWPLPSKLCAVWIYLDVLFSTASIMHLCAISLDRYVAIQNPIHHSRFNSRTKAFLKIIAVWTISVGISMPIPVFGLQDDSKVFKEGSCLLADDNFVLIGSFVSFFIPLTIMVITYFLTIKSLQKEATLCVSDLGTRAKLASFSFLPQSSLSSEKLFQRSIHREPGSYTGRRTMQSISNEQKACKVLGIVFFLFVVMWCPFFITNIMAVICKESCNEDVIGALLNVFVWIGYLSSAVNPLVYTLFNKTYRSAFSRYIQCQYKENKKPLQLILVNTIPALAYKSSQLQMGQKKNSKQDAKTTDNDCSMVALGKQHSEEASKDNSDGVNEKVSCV
Sequence of 5-HT2B (rat) (P30994 whole entry): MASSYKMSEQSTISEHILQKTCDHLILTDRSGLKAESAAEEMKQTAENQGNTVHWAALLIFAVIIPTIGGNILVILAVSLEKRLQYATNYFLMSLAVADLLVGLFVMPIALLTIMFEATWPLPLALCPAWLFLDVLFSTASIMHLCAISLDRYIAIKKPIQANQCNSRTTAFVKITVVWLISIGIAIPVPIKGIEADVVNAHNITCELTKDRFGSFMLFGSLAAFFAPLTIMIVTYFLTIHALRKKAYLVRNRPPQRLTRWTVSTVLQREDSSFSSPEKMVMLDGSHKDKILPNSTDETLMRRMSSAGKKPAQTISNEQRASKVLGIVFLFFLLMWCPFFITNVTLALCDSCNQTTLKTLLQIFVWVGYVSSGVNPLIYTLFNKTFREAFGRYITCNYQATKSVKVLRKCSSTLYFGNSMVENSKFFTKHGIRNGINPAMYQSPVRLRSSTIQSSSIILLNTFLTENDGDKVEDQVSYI
Sequence of 5-HT2A (rat) (P14842 whole entry): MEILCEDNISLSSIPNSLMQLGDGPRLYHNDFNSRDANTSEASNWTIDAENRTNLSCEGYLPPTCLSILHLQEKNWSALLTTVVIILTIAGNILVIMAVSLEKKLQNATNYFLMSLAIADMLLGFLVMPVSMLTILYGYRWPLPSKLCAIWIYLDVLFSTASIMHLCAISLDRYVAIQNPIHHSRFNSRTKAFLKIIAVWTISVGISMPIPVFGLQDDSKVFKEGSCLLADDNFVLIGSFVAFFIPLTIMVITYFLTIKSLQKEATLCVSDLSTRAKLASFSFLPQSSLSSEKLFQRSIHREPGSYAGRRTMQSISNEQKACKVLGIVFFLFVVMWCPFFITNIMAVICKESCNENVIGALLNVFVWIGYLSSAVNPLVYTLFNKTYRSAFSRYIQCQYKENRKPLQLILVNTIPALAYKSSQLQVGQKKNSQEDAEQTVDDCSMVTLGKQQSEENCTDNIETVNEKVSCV
T5 sequence (P41595 whole entry): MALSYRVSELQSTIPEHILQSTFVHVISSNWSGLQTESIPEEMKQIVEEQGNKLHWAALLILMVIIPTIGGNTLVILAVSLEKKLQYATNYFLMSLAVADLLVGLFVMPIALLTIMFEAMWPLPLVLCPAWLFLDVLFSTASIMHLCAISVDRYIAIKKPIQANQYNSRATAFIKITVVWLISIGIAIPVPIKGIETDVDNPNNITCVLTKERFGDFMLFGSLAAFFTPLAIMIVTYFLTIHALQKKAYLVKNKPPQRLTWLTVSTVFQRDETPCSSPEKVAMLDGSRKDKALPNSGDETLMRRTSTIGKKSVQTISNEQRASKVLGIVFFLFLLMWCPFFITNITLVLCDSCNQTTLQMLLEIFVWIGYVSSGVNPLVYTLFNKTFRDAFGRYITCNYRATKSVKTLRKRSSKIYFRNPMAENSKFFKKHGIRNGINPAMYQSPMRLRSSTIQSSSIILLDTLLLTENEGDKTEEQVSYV
T1 sequence (P28222 whole entry): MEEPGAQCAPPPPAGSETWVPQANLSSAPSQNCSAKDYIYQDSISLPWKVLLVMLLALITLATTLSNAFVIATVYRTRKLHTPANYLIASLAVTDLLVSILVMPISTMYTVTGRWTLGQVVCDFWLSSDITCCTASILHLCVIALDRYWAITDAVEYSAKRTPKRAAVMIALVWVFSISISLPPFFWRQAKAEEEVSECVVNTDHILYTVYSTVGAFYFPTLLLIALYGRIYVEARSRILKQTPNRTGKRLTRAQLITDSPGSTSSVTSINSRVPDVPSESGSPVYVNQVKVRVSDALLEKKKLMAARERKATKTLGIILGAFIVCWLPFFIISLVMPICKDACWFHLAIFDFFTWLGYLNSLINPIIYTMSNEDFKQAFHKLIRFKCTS
T4 sequence (P34969 whole entry): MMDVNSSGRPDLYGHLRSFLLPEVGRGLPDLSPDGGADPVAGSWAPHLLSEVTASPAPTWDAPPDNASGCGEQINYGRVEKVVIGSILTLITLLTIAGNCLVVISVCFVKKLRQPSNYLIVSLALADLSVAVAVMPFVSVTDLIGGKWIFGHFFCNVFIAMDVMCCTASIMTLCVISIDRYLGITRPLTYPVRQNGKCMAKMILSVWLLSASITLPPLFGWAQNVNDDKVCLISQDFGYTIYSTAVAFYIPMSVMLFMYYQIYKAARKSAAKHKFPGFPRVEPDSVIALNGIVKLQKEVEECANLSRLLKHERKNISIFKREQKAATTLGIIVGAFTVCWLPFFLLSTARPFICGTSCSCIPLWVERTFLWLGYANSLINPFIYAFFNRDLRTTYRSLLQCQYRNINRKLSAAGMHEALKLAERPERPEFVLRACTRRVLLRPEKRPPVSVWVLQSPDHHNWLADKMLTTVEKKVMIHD

SMILES	EC50 [1]	EC50 [2]	EC50 [3]	Emax [3]	5-HT2A/5-HT2B Selectivity (rat) [3]	EC50 [4]	EC50 [5]	5-HT2A/5-HT2B Selectivity [6]	EC50 [7]	Emax [7]	EC50 [8]	EC50 [9]	Emax [9]	agonist activity (in words) ([3]; rat 5-HT2A receptor)	agonist activity (in words) ([5]; rat 5-HT2B receptor)	agonist activity (in words) ([9]; human 5-HT2B receptor)
COc1ccc(OC)c(CCNCc2cc(C)cc(F)c2)c1 [Compound 2-2, 2-(2,5-dimethoxyphenyl)-N-(3-fluoro-5-methylbenzyl)ethan-1-amine]	> 100000 nM	> 1000 nM	7.2 nM	105%	>100000	> 25000 nM	> 1000 nM	177	25.8 nM	82.1%	> 100000 nM	81.1 nM	49.3%	–	–	–
COc1ccc(OC)c(CCNCc2cc(C)cc(Cl)c2)c1 [Compound 2-1, N-(3-chloro-5-methylbenzyl)-2-(2,5-dimethoxyphenyl)ethan-1-amine]	> 100000 nM	> 20000 nM	3.06 nM	99.5%	>100000	> 9000 nM	> 1000 nM	160	17.2 nM	89.3%	> 100000 nM	34.7 nM	77.6%	full agonist activity	inactive	full agonist activity
